Patent US12383514B2, “Nano-particles of menaquinone and methods of treatment” (Epizon, Inc., priority 2023, dated 2025)

Key:
[1] = Dissolution testing of MK-7 nanosuspension in FeSSIF (study 1, 500 mL media); assay type: physicochemical; details: FeSSIF pH 5, 37 °C, 0.01 mg/mL drug load
Description: MK-7 (menaquinone-7, API) was suspended in an aqueous vehicle containing wetting agent sodium deoxycholat. The API concentration was 4% and the wetting agent concentration was 0.4% w/w. The API particles were milled to a particle size of 155 nm using zirconium milling beads and high shear Beadbeater mixing. The dissolution of the nanosuspension was tested at a concentration of 0.01 mg/mL, in triplicate, in pH 5 Fed State Simulated Intestinal Fluid (FeSSIF).
1. Clean dissolution system with DI water. Prepare FeSSIF: 2. Fill three (3) vessels with 500 mL of FeSSIF media and heat to 37° C. 3. Set up the following dissolution conditions:
4. Vortex suspension x for approximately one minute so that it is uniform. Weigh three (3) aliquots of 0.15 g of the 4% nanosuspension into a tared syringe to give a target 100% dissolution concentration of 0.01 mg/mL. Record weight. 5. Add weighed suspension directly to each vessel. 6. Start at Timer. 7. After five minutes, manually pull up 3 mL from each dissolution vessel in a syringe. 8. Attach a 0.2 μm filter to the syringe. 9. Transfer 2 mL of the dissolution sample back into the vessel. 10. Transfer the final 1 mL of sample to an amber HPLC vial and crimp seal. 11. Repeat Steps #8-11 at 10, 15, 30, 45 and 60 mins. 12. After the 60-minute time-point, mix each vessel for 5 minutes with a high shear mixer. 13. Repeat Step #8-11 and label this sample as ‘infinity’. 14. Run samples on HPLC 10 minutes HPLC method with replicate HPLC standard solutions.

[2] = Dissolution testing of MK-7 nanosuspension in FeSSIF (summary study 2); assay type: physicochemical; details: FeSSIF pH 5, 37 °C, 0.0104 mg/mL
Description: MK-7 (menaquinone-7, API) was suspended in an aqueous vehicle containing wetting agent, sodium deoxycholate. The API concentration was 4% and the wetting agent concentration was 0.4% w/w. The API particles were milled to a particle size of 156 nm by use of zirconium milling beads and high shear Beadbeater mixing. The dissolution of the nanosuspension was tested at a concentration of 0.01 mg/mL, in triplicate, in pH 5 FeSSIF.
Clean dissolution system with DI water. Fill 3× vessels with 500 mL of FeSSIF media and heat to 37° C. Set up the following dissolution conditions:
Vortex suspension×1 minute so that it is uniform. Weigh 3×0.15 g portions of nanosuspension into a tared syringe to give a target 100% dissolution concentration of 0.01 mg/mL. Record weight. Add weighed suspension directly to each vessel. Start at Timer.
At 5 mins, manually pull up 3 mL from each vessel in a syringe. Attach a 0.2 μm filter to the syringe. Transfer 2 mL of the aliquot back into the vessel. Transfer the final 1 mL of aliquot to an HPLC vial and crimp seal. Repeat Steps #8-11 at 10, 15, 30, 45 and 60 mins. After the 60-minute time-point, mix each vessel for 5 minutes with a high shear mixer. Repeat Step #8-11 and label this sample as ‘infinity’.
Run samples on HPLC 10-minute HPLC method with replicate HPLC STDs.

PC12 cells = details: cited from earlier work
caspase-3 = details: concentration of 10 mcmol/L; cited from earlier work
[3] = Infinity (after 5 min high shear mixing)

| Compound | % Dissolution (Avg of n = 3) [1, 3] [%] | % Dissolution (Avg of n = 3) ([1]; timepoint 0 min) [%] | % Dissolution (Avg of n = 3) ([1]; timepoint 10 min) [%] | % Dissolution (Avg of n = 3) ([1]; timepoint 15 min) [%] | % Dissolution (Avg of n = 3) ([1]; timepoint 30 min) [%] | % Dissolution (Avg of n = 3) ([1]; timepoint 45 min) [%] | % Dissolution (Avg of n = 3) ([1]; timepoint 60 min) [%] | % Dissolution (Avg of n = 3) [2, 3] [%] | % Dissolution (Avg of n = 3) ([2]; timepoint 0 min) [%] | % Dissolution (Avg of n = 3) ([2]; timepoint 5 min) [%] | % Dissolution (Avg of n = 3) ([2]; timepoint 10 min) [%] | % Dissolution (Avg of n = 3) ([2]; timepoint 15 min) [%] | % Dissolution (Avg of n = 3) ([2]; timepoint 30 min) [%] | % Dissolution (Avg of n = 3) ([2]; timepoint 45 min) [%] | % Dissolution (Avg of n = 3) ([2]; timepoint 60 min) [%] | neuronal death resulting from Aβ(1-42) (PC12 cells; PC12 cells) | apoptosis after exposure to H2O2 or Aβ(1-42) (PC12 cells; cells pretreated with vitamin K2) | decrease of caspase-3 activity (caspase-3) [fold] |
| --- | --- | --- | --- | --- | --- | --- | --- | --- | --- | --- | --- | --- | --- | --- | --- | --- | --- | --- |
| CC(C)=CCC/C(C)=C/CC/C(C)=C/CC/C(C)=C/CC/C(C)=C/CC/C(C)=C/CC/C(C)=C/CC1=C(C)C(=O)c2ccccc2C1=O [API, menaquinone-7] | 97.0 | 0 | 96.7 | 97.3 | 97.8 | 97.7 | 95.7 | 10.1 | 0.0 | 4.1 | 9.1 | 8.3 | 16.6 | 7.9 | 5.3 | – | – | – |
| vitamin K2 | – | – | – | – | – | – | – | – | – | – | – | – | – | – | – | prevented neuronal death | significantly less apoptosis | 2.5 |
